From the supplement of paper PMC10307832

Compound: O=C(/C=C/c1cccnc1)NCCCCC1CCN(C(=O)c2ccccc2)CC1 [Daporinad] + COc1cc2c(Oc3ccc(NC(=O)C4(C(=O)Nc5ccc(F)cc5)CC4)cc3F)ccnc2cc1OCCCN1CCOCC1 [Foretinib] (partner 0.25 µM)
Assay: relative viability (nuclei count vs DMSO), 5 days (fraction); higher = more cells survive
Conditions: first compound 0.01581 µM
In short: (§1)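 Lung cancer cell lines in 1536-well plates were dosed by pin tool the day after seeding, either with one drug alone or with a fixed anchor-drug dose plus five library-drug doses (not always all listed) in √10 steps. After 5 days, cells were fixed and their nuclei stained in one step (final 0.05% Triton X-100, 1% formaldehyde, 1 ug/ml Hoechst), then counted on 4× images. Relative viability is the nuclei count in treated wells divided by that in vehicle wells. Values are medians of duplicate plates.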

In order of falling relative viability:
1. SK-MES-1  1.21
2. NCI-H650  1.08
3. NCI-H1299  1.04
4. A549  0.867
5. NCI-H1623  0.866
6. NCI-H1563  0.86
7. LU99A  0.772
8. SW 900  0.709
9. NCI-H727  0.691
10. ABC-1  0.662
11. NCI-H661  0.573

Compound: O=C(/C=C/c1cccnc1)NCCCCC1CCN(C(=O)c2ccccc2)CC1 [Daporinad] + Nc1nc2[nH]cc(CCc3ccc(C(=O)N[C@@H](CCC(=O)O)C(=O)O)cc3)c2c(=O)[nH]1 [Pemetrexed] (partner 0.2 µM)
Assay: as above
Conditions: first compound 0.0005 µM
In short: as §1

In order of falling relative viability:
1. COR-L 105  1.21
2. NCI-H2405  1.17
3. SK-MES-1  1.04
4. NCI-H522  0.983
5. NCI-H661  0.959
6. NCI-H650  0.903
7. NCI-H1666  0.902
8. NCI-H2085  0.843
9. NCI-H2342  0.782
10. NCI-H1793  0.727
11. NCI-H1563  0.722
12. NCI-H1792  0.721
13. NCI-H2087  0.675
14. NCI-H2126  0.644
15. HCC-44  0.623
16. NCI-H1648  0.596
17. H3255  0.573
18. NCI-H1993  0.54
19. LCLC-103H  0.497
20. SW 900  0.486
21. NCI-H596  0.432
22. EMC-BAC-2  0.428
23. NCI-H1650  0.426
24. LOU-NH91  0.383
25. LK-2  0.314
26. HOP-62  0.297
27. NCI-H2170  0.277
28. ChaGo-K-1  0.255
29. NCI-H838  0.249
30. NCI-H441  0.242
31. NCI-H358  0.199
32. COR-L23  0.194
33. NCI-H647  0.193
34. HCC-366  0.187
35. LU99A  0.165
36. PC-14  0.0976

Same assay, conditions: first compound 0.001581 µM

In order of rising relative viability:
1. PC-14  0.126
2. LU99A  0.142
3. NCI-H358  0.168
4. NCI-H647  0.191
5. COR-L23  0.198
6. NCI-H441  0.243
7. ChaGo-K-1  0.248
8. NCI-H2170  0.25
9. NCI-H838  0.262
10. HOP-62  0.32
11. LK-2  0.331
12. LOU-NH91  0.359
13. NCI-H1650  0.395
14. LCLC-103H  0.453
15. NCI-H596  0.457
16. EMC-BAC-2  0.482
17. NCI-H1993  0.561
18. H3255  0.561
19. HCC-44  0.593
20. NCI-H1648  0.617
21. NCI-H1563  0.655
22. NCI-H2126  0.68
23. NCI-H2342  0.739
24. NCI-H2087  0.739
25. NCI-H661  0.791
26. SK-MES-1  0.816
27. NCI-H1666  0.839
28. NCI-H650  0.949
29. COR-L 105  1
30. NCI-H1792  1.02
31. NCI-H1793  1.03
32. NCI-H2405  1.14
33. NCI-H522  1.3

Same assay, conditions: first compound 0.005 µM

In order of rising relative viability:
1. HCC-366  0.152
2. PC-14  0.153
3. NCI-H838  0.172
4. NCI-H647  0.173
5. LU99A  0.18
6. NCI-H358  0.183
7. LK-2  0.188
8. COR-L23  0.208
9. ChaGo-K-1  0.248
10. NCI-H2170  0.252
11. NCI-H441  0.268
12. HOP-62  0.284
13. EMC-BAC-2  0.421
14. NCI-H1650  0.458
15. SW 900  0.506
16. LCLC-103H  0.508
17. LOU-NH91  0.509
18. NCI-H596  0.525
19. H3255  0.616
20. NCI-H1993  0.644
21. NCI-H661  0.652
22. HCC-44  0.677
23. NCI-H2126  0.694
24. NCI-H2087  0.711
25. NCI-H1792  0.76
26. NCI-H1648  0.843
27. NCI-H2342  0.862
28. NCI-H1666  0.862
29. NCI-H1563  0.873
30. SK-MES-1  0.955
31. NCI-H2085  0.994
32. NCI-H1793  1
33. NCI-H650  1.02
34. NCI-H2405  1.03
35. NCI-H522  1.09
36. COR-L 105  1.18

Same assay, conditions: first compound 0.01581 µM

In order of falling relative viability:
1. NCI-H650  1.16
2. NCI-H1793  1.05
3. NCI-H2085  1.04
4. COR-L 105  1.02
5. NCI-H2342  0.819
6. NCI-H1666  0.806
7. NCI-H1648  0.769
8. HCC-44  0.765
9. NCI-H2087  0.764
10. NCI-H2126  0.7
11. NCI-H1792  0.674
12. NCI-H522  0.668
13. NCI-H1563  0.641
14. SK-MES-1  0.64
15. H3255  0.638
16. NCI-H1993  0.567
17. NCI-H661  0.51
18. SW 900  0.496
19. LOU-NH91  0.482
20. LCLC-103H  0.471
21. NCI-H2405  0.413
22. NCI-H1650  0.391
23. EMC-BAC-2  0.388
24. NCI-H596  0.36
25. NCI-H441  0.291
26. HOP-62  0.282
27. NCI-H2170  0.252
28. ChaGo-K-1  0.239
29. NCI-H647  0.21
30. COR-L23  0.196
31. NCI-H358  0.185
32. NCI-H838  0.179
33. LU99A  0.156
34. PC-14  0.146
35. LK-2  0.142
36. HCC-366  0.104
